According to US11415513B2, “Method for determining the degree of sensitivity of a strain of fungus to an antifungal agent” (UNIVERSITE GRENOBLE ALPES, priority 2015, dated 2022):
In brackets after ≈: the same amount, converted by molar mass.

Experiments:
[1] = test system: strain DSY296 of C. albicans; assay: Sensitivity test by HCA microscopy (chitin level, Calcofluor White); format: cell-based, Candida albicans; conditions: vs cells in the absence of antifungal agent; 6.5 h at 30° C., SC medium; concentration gradient of Table 1
Description: (§1) The strains of Candida were incubated beforehand at 30° C. overnight in a yeast extract medium—peptone dextrose (YPD) (1% bacto peptone, 0.5% yeast extract, 2% glucose, 1.5% agar).
(§2) Yeast colonies were then removed from YPD medium plates and suspended in a 0.9% NaCl saline solution, in which the cell concentration was estimated by optical microscopy using Kova counting slides. […]
(§3) A step of acquiring images by automated fluorescence microscopy (ScanR screening station, Olympus), using a 40× lens and a CFW filter, made it possible to obtain 30 images per well so as to capture enough cells to provide statistically significant data. These images were analysed by software (ScanR analysis software, Olympus). Firstly, the background noise was processed so as to improve the contrast between the fluorescence of the yeasts and background noise. […] Segmentation of the fluorescent elements present in each of the acquired images was then performed using an algorithm predefined in the software, making it possible to determine the limit of each element on the basis of the fluorescence intensity of said element. […]
(§4) Each element then corresponding to a yeast, it was thus possible, on the basis of these elements predefined beforehand, to define the fluorescence intensity for each of the yeasts, this intensity being directly correlated with the chitin content of their wall. […]

[2] = test system: strain SC5314 of C. albicans; assay: Sensitivity test by HCA microscopy (chitin level, Calcofluor White; cell count); format: cell-based, Candida albicans; conditions: 6.5 h at 30° C., SC medium; for decrease of the number of cells / increase of the chitin level in the wall of the cells: vs cells in the absence of antifungal agent, concentration gradient of Table 1
Description: as §1
Yeast colonies were then removed from YPD medium plates and suspended in a 0.9% NaCl saline solution, in which the cell concentration was estimated by optical microscopy using Kova counting slides.
A dilution was performed to obtain 15 ml of an inoculum at 3×10^6 CFU/ml, in a synthetic complete (SC) medium at pH 7 (2% glucose, 0.5% ammonium sulfate, 0.17% nitrogen-containing yeast base, 0.2% synthetic complete mixture, and 10% HEPES 1.5M pH 7.2) for C. albicans, C. parapsilosis, C. tropicalis and C. krusei, and in a solution of RPMI 1640 pH 7.3 (10% HEPES 1M pH 7.2) for C. glabrata, so as to reduce the formation of septa and clusters.
1 ml of inoculum was then added to 2 ml of antifungal solution prepared in an SC or RPMI medium depending on the species of fungus, so as to obtain a final concentration of yeast of 10^6 CFU/ml and the desired concentration of antifungal agent according to table 1.
After homogenisation, the cultures were placed at 30° C. at 200 rpm, with the exception of cultures of C. glabrata, which were placed at 35° C. at 200 rpm, and incubated for a period of 6.5 h or 24 h.
After incubation, 100 μl of the culture of fungi obtained above were transferred in triplicate to 96-well plates, and 2.5 μl of Calcofluor White (CFW) were added to each well so as to mark the chitin of the cell walls of the yeasts.
A step of acquiring images by automated fluorescence microscopy (ScanR screening station, Olympus), using a 40× lens and a CFW filter, made it possible to obtain 30 images per well so as to capture enough cells to provide statistically significant data. These images were analysed by software (ScanR analysis software, Olympus). Firstly, the background noise was processed so as to improve the contrast between the fluorescence of the yeasts and background noise. A pixel threshold was then defined. Segmentation of the fluorescent elements present in each of the acquired images was then performed using an algorithm predefined in the software, making it possible to determine the limit of each element on the basis of the fluorescence intensity of said element. A size parameter was then applied to select the yeasts and eliminate the aggregates and the fluorescent debris.
Each element then corresponding to a yeast, it was thus possible, on the basis of these elements predefined beforehand, to define the fluorescence intensity for each of the yeasts, this intensity being directly correlated with the chitin content of their wall.
On the basis of said defined elements, it was also possible to automatically count the yeasts,
The strain SC5314 of C. albicans was cultivated as described in paragraph I of the Examples section so as to obtain an inoculum at 3×10^6 CFU/ml in 15 ml of SC medium.
2 ml of fluconazole solution prepared in the SC medium were then added to 1 ml of this inoculum so as to obtain a final concentration of yeast of 10^6 CFU/ml and of 16 μg/ml in fluconazole.
The inoculum was treated in the same way so as to obtain cultures of 10^6 CFU/ml and the following concentrations of fluconazole: 0.015 μg/ml, 0.031 μg/ml, 0.062 μg/ml, 0.125 μg/ml, 0.25 μg/ml, 0.5 μg/ml, 1 μg/ml, 2 μg/ml, 4 μg/ml, 8 μg/ml, 16 μg/ml.
After incubation for 6.5 h at 30° C. with stirring at 200 rpm, 100 μl of each culture were removed and transferred to 96-well plates. This procedure was performed in triplicate, and 2.5 μl of CFW were then added to each well.
The chitin level in the cell wall of the yeasts was then measured by […] analysis (HCA) microscopy, as described in paragraph II of the Examples section, in triplicate for each condition of concentration of fluconazole and without fluconazole.

[3] = test system: strain GRE32 of C. krusei; assay: Etest method (MIC); format: cell-based, Candida krusei; conditions: RPMI medium plates, 24 h at 35° C.; for MIC: Pichia kudriavzevii; for phenotype by Etest MIC, interpretation by the EUCAST or CLSI table: fluconazole interpreted by extrapolation of the EUCAST and CLSI data for C. glabrata
Description: (§5) The Etest® method is a commercial test for determining the sensitivity of a strain, most frequently used routinely in clinical mycology laboratories.
(§6) The Etest® tests were performed according to the manufacturer's instructions. After distributing a standardised Mac Farland 0.5 inoculum (equivalent of […]) over plates of RPMI medium, said plates were incubated for 24 h at 35° C., with the exception of C. glabrata in which case the incubation was extended to 48 h so as to be able to determine the minimum inhibitory concentration (MIC).
(§7) The results of the MICs obtained were interpreted in accordance with the tables of the CLSI (Clinical and Laboratory Standards Institute) and/or of EUCAST (European Committee on Antimicrobial Susceptibility Testing) (Arendrup M C, Cuenca-Estrella M, Lass-Flörl C, Hope W W (2014) Breakpoints for antifungal agents: an update from EUCAST focussing on echinocandins against Candida spp and triazoles against Aspergillus spp. Drug Resist Updat 16(6):81-95. doi:10.1016/j.drup.2014.01.001) (cf. Table 2 taken from Maubon D, Garnaud C, Calandra T, et al. (2014) Resistance of Candida spp. to antifungal drugs in the ICU: where are we now? Intensive Care Med. doi: 10.1007/s00134-014-3404-7) which list the clinical thresholds (CBPs) for the most common species of yeast of the genus Candida as a function of different antifungal agents, or according to the table of epidemiological thresholds (ECVs).

[4] = test system: strain ATCC®6258 of C. krusei; assay: Etest method (MIC); format: cell-based, Candida krusei; conditions: RPMI medium plates, 24 h at 35° C.; for MIC: Pichia kudriavzevii, ATCC6258; for phenotype by Etest MIC, interpretation by the EUCAST or CLSI table: fluconazole interpreted by extrapolation of the EUCAST and CLSI data for C. glabrata
Description: as §5, §6, §7

[5] = test system: strain 8/21 of C. parapsilosis; assay: Sensitivity test by HCA microscopy (chitin level, Calcofluor White); format: cell-based, Candida parapsilosis; conditions: vs cells in the absence of antifungal agent; 6.5 h at 30° C., SC medium; concentration gradient of Table 1
Description: as §1, §2, §3, §4

Row | SMILES | decrease in the chitin level in the wall of the cells [1] | phenotype of the strain with respect to the antifungal agent (HCA) [2] | decrease of the number of cells [2] | increase of the chitin level in the wall of the cells [2] | MIC [3] [µg/mL] | phenotype by Etest MIC, interpretation by the EUCAST or CLSI table [3] | MIC [4] [µg/mL] | phenotype by Etest MIC, interpretation by the EUCAST or CLSI table [4] | increase in the chitin level in the wall of the cells [5]
1 | OC(Cn1cncn1)(Cn1cncn1)c1ccc(F)cc1F [fluconazole] | less than 20% | sensitive (an increase in the chitin level greater than or equal to 20% is observed compared to the chitin level of a population of cells of said fungus in the absence of antifungal agent, as well as a decrease in the number of cells of at least 0.3 log) | at least 0.3 log | greater than or equal to 20% | 64 (≈ 209 µM) | resistant | 64 (≈ 209 µM) | resistant | less than 10%
2 | C[C@@H](c1ncncc1F)[C@](O)(Cn1cncn1)c1ccc(F)cc1F [voriconazole] | less than 20% | sensitive (an increase in the chitin level greater than or equal to 20% is observed compared to the chitin level of a population of cells of said fungus in the absence of antifungal agent, as well as a decrease in the number of cells of at least 0.3 log) | at least 0.3 log | greater than or equal to 20% | 1 (≈ 2.86 µM) | intermediate | 1 (≈ 2.86 µM) | intermediate | less than 10%
